Experimental data published in ChEMBL document CHEMBL3632530, “Synthesis and structure-activity relationship study of benzofuran-based chalconoids bearing benzylpyridinium moiety as potent acetylcholinesterase inhibitors” (Eur J Med Chem, 2015).
pIC50: −log10 of the molar value.

target: Acetylcholinesterase (Torpedo californica, UniProt P04058); experiment: Inhibition of Torpedo californica AChE (type VI-S) using acetylthiocholine iodide as substrate assessed as 5-thio-2-nitrobenzoate anion formation preincubated for 15 mins followed by substrate addition; design: species or system Tetronarce californica
Sequence (P04058 whole entry): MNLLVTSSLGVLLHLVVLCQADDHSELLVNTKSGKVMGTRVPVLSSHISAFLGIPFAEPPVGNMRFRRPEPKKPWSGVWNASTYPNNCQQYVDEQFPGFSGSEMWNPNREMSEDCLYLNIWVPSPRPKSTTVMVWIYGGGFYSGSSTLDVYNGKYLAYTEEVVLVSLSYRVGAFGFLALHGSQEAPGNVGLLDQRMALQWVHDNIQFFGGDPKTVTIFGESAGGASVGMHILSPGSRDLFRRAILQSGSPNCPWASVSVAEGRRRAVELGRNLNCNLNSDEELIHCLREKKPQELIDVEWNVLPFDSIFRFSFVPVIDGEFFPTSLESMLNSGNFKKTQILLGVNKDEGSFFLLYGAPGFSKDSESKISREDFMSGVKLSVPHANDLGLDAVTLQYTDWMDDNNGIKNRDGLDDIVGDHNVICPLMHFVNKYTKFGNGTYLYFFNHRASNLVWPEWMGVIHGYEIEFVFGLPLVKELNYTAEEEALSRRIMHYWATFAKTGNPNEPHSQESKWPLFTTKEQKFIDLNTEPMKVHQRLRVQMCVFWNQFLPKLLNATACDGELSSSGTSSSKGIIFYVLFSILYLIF

Point of comparison: O=C(/C=C/c1ccc[n+](Cc2cccc(Cl)c2Cl)c1)c1cc2cc(Br)ccc2o1, pIC50 5.55. Against it:
- O=C(/C=C/c1ccc[n+](Cc2ccccc2)c1)c1cc2ccccc2o1 — 1.69 log units higher, 7.24
- O=C(/C=C/c1ccc[n+](Cc2ccccc2Br)c1)c1cc2ccccc2o1 — 1.91 log units higher, 7.46
- O=C(/C=C/c1ccc[n+](Cc2ccc(Br)cc2)c1)c1cc2ccccc2o1 — 0.90 log units higher, 6.45
- O=C(/C=C/c1ccc[n+](Cc2ccc([N+](=O)[O-])cc2)c1)c1cc2ccccc2o1 — 1.02 log units lower, 4.53
- O=C(/C=C/c1ccc[n+](Cc2ccccc2)c1)c1cc2cc(Br)ccc2o1 — 0.28 log units lower, 5.27
- O=C(/C=C/c1ccc[n+](Cc2ccccc2Br)c1)c1cc2cc(Br)ccc2o1 — within 0.2 log units, 5.67
- O=C(/C=C/c1ccc[n+](Cc2ccc(Br)cc2)c1)c1cc2cc(Br)ccc2o1 — 1.04 log units lower, 4.51
- O=C(/C=C/c1ccc[n+](Cc2ccc(Cl)c(Cl)c2)c1)c1cc2cc(Br)ccc2o1 — 0.55 log units higher, 6.10
- COc1cccc2cc(C(=O)/C=C/c3ccc[n+](Cc4ccccc4)c3)oc12 — within 0.2 log units, 5.41
- COc1cccc2cc(C(=O)/C=C/c3ccc[n+](Cc4ccccc4Br)c3)oc12 — 2.02 log units higher, 7.57
- COc1cccc2cc(C(=O)/C=C/c3ccc[n+](Cc4ccc(Br)cc4)c3)oc12 — 0.58 log units lower, 4.97
- COc1cccc2cc(C(=O)/C=C/c3ccc[n+](Cc4ccc(Cl)cc4)c3)oc12 — 0.60 log units lower, 4.95
- COc1cccc2cc(C(=O)/C=C/c3ccc[n+](Cc4cccc(Cl)c4Cl)c3)oc12 — 0.46 log units higher, 6.01
- O=C(/C=C/c1cc[n+](Cc2ccccc2)cc1)c1cc2ccccc2o1 — 1.64 log units higher, 7.19
- O=C(/C=C/c1cc[n+](Cc2ccccc2Br)cc1)c1cc2ccccc2o1 — 1.84 log units higher, 7.39
- O=C(/C=C/c1cc[n+](Cc2cccc(Cl)c2Cl)cc1)c1cc2ccccc2o1 — within 0.2 log units, 5.51
- O=C(/C=C/c1cc[n+](Cc2ccccc2)cc1)c1cc2cc(Br)ccc2o1 — 0.33 log units lower, 5.22
